Results taken from patent publication US20070203104A1, “Pharmaceutical Formulations” (priority 2006, published 2007).

Columns and labels:
[1] = symptoms associated with chronic nasal congestion, cited from earlier work
[2] = cited from earlier work
Solubility = assay type: physicochemical
[3] = cited from earlier work; remark: listed apart in the source
rhinoviruses = conditions: cited from earlier work
[4] = system: secretions of natural tear components; conditions: preclinical testing; cited from earlier work

Oc1cccc(Nc2ncc(F)c(Nc3cccc(O)c3)n2)c1 [Example R112]
improvement from baseline measurements ([1]; baseline prior to drug initiation): up to 38%
absolute difference over placebo [1]: 9%
relative improvement over placebo [1]: greater than 20%

C[C@@H]1C[C@H]2[C@@H]3CCC4=CC(=O)C=C[C@]4(C)[C@@]3(Cl)[C@@H](O)C[C@]2(C)[C@@]1(OC(=O)c1ccco1)C(=O)CCl [Mometasone Furoate]
bioavailability [2]: not readily bioavailable

Cc1cc(CCCOc2c(C)cc(-c3noc(C(F)(F)F)n3)cc2C)on1 [Pleconaril, 1,2,4-oxadiazole3-[3,5-Dimethyl-4-[3-(3-methyl-5-isoxazolyl)propoxy]phenyl]-5-(trifluoremethyl)]
solubility in condensed phases of hydrofluorocarbons (Solubility; certain condensed phases of hydrofluorocarbons, e.g. HFA 227): can be dissolved
solubility in certain glyceride oils (Solubility; certain glyceride oils, e.g. Miglyol 812): can be dissolved
solubility in aqueous solvents [3]: insoluble
activity against rhinoviruses (rhinoviruses): active

O=c1ccn([C@@H]2O[C@H](COP(=O)(O)OP(=O)(O)OP(=O)(O)OP(=O)(O)OC[C@H]3O[C@@H](n4ccc(=O)[nH]c4=O)[C@H](O)[C@@H]3O)[C@@H](O)[C@H]2O)c(=O)[nH]1 [diquafosol]
secretions of natural tear components [4]: increased
